Data reported in patent US20250236608A1, “EGFR INHIBITORS” (Blueprint Medicines Corporation, priority 2022, published 2025).

Tests used:
EGFR (d746-750) = EGFR (d746-750) (Homo sapiens (Human), UniProt P00533, DEL746-750); test: Biochemical EGFR inhibition assay, EGFR (d746-750); details: Caliper mobility shift; 1.0 mM ATP or ATP Km; read-out: Enz EGFR_Exon19-del746-750 IC50
EGFR L858R = EGFR L858R (Homo sapiens (Human), UniProt P00533, L858R); test: Biochemical EGFR inhibition assay, EGFR L858R; details: Caliper mobility shift; 1.0 mM ATP or ATP Km; read-out: Enz EGFR_L858R IC50
EGFR L858R, sequence (P00533 25-1210 L858R): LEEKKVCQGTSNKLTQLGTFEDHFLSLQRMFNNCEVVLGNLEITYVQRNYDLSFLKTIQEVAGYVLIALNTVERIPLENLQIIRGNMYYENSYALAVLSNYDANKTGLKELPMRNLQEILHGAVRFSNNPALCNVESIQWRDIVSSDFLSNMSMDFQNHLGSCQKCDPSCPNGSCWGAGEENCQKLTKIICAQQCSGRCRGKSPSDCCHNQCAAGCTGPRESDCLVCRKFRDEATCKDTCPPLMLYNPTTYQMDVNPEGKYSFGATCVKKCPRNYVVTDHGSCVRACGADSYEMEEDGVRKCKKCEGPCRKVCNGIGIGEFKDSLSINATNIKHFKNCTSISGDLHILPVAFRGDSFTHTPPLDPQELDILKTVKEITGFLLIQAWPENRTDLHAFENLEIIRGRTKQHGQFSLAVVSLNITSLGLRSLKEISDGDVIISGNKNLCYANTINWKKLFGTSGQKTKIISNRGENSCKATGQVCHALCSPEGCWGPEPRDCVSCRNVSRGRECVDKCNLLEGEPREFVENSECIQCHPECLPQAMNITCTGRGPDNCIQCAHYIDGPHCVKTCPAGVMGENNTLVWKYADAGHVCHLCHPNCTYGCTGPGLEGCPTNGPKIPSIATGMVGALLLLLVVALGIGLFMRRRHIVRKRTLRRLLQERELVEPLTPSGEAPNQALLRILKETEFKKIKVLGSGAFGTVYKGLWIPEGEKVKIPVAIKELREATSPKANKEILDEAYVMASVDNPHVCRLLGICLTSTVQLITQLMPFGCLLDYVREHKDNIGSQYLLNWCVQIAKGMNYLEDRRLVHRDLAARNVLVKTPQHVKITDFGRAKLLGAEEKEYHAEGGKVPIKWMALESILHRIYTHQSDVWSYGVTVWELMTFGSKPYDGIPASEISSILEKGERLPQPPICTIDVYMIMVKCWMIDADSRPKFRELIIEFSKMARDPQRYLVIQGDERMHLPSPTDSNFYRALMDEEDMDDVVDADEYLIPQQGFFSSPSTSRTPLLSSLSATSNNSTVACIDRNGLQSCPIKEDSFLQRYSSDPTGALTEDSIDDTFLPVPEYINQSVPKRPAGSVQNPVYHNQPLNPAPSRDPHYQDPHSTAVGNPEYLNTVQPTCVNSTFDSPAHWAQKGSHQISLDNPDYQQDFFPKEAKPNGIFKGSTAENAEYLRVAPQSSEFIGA

[1] = target: pEGFR (Tyr1068) in PC-9 cells (Ex19Del) (Homo sapiens (Human), UniProt P00533, DEL746-750); test: PC-9 pEGFR AlphaLISA assay; format: cell-based; details: 4 hours incubation, p-EGFR (Tyr1068) AlphaLISA, read-out: Ext pEGFR_PC-9 Ex19Del IC50
pEGFR (Tyr1068) in PC-9 cells (Ex19Del), sequence (P00533 other isoform, or with tags, fused parts or gaps del 746-750): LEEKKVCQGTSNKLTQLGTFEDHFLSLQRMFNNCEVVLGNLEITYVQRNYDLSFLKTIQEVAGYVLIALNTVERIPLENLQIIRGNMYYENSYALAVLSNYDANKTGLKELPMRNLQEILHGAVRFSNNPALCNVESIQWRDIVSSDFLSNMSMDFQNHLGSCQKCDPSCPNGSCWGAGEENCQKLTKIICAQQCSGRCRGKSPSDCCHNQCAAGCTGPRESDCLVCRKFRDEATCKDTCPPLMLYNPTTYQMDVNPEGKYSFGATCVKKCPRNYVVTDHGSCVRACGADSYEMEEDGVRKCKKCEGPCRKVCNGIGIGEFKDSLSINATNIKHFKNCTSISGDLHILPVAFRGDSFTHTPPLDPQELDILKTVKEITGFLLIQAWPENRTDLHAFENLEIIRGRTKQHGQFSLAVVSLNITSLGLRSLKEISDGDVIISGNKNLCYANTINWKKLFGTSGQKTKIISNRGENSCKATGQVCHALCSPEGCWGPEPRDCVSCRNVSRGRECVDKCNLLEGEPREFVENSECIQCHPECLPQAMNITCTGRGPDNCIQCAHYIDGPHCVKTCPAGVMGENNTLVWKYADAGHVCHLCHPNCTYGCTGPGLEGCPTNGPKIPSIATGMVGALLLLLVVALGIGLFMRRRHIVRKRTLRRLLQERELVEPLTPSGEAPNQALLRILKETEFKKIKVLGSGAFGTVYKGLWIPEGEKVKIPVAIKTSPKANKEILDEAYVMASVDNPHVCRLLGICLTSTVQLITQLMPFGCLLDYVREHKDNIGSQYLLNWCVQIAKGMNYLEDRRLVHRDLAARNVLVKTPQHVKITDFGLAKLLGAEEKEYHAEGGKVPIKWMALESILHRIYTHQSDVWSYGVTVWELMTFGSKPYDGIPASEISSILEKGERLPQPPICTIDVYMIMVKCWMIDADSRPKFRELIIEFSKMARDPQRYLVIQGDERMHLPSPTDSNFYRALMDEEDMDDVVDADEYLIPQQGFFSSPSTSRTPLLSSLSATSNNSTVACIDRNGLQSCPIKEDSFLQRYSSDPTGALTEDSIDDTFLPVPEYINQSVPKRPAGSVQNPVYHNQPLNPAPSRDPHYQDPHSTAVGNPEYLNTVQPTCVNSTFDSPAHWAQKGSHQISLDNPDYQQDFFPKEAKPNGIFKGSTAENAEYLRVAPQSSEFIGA
Outline: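 First, cells settled overnight in 10% FBS medium. Second, a 10-point, 4-fold series of test agents was applied for 4 h at 37° C. Third, lysates were probed with AlphaLISA acceptor and donor beads, incubated overnight in the dark. Last, IC50 was taken from the dose-response.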

EGFR (d746-750), sequence (P00533 other isoform, or with tags, fused parts or gaps del 1-694/del 746-750 limits assumed): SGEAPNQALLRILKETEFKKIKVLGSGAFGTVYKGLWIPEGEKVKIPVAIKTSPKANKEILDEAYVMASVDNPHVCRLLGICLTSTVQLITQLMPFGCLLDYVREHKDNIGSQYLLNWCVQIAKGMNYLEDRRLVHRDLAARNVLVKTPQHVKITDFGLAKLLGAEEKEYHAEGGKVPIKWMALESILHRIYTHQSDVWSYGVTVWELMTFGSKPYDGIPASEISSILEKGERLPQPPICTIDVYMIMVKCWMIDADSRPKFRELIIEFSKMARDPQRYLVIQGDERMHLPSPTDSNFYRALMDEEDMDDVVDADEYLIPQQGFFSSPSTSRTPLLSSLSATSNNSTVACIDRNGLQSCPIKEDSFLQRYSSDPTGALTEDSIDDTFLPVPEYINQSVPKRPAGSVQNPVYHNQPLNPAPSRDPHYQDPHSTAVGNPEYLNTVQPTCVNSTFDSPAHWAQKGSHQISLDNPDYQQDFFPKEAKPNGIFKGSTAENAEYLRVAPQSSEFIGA

| IC50 (EGFR (d746-750)) [nM] | IC50 (EGFR L858R) [nM] | IC50 [1] [nM] | SMILES |
| --- | --- | --- | --- |
| 2.5 | 5.6 | 7.8 | COc1cc2ncnc(-c3cn(C)nc3-c3ccccc3)c2cc1NC(=O)C(C)(C)N(C)C [Example 246, 2-(dimethylamino)-N-(7-methoxy-4-(1-methyl-3-phenyl-1H-pyrazol-4-yl)quinazolin-6-yl)-2-methylpropanamide] |
| 0.8 | 1.3 | 1.1 | COc1cc2ncnc(-c3cn(C)nc3-c3ccccc3)c2cc1NC(=O)c1ccccc1F [Example 198, 2-fluoro-N-(7-methoxy-4-(1-methyl-3-phenyl-1H-pyrazol-4-yl)quinazolin-6-yl)benzamide] |
| 2.9 | 5.2 | 4.8 | CCn1cc(-c2ncnc3cc(OC)c(N4CCOCC4)cc23)c(-c2ccc(F)cc2)n1 [Example 171, 4-(4-(1-ethyl-3-(4-fluorophenyl)-1H-pyrazol-4-yl)-7-methoxyquinazolin-6-yl)morpholine] |
| 7 | 2.9 | 55.7 | CCC(=O)Nc1cc2c(-c3cnn(CC(F)F)c3-c3ccccc3)ncnc2cc1OC [Example 500] |
| 1.2 | 3.9 | 7.7 | COc1cc2ncnc(-c3cn(C)nc3-c3ccccc3)c2nc1NC(=O)c1cn(C(F)(F)F)nc1C [Example 428, N-(7-methoxy-4-(1-methyl-3-phenyl-1H-pyrazol-4-yl)pyrido[3,2-d]pyrimidin-6-yl)-3-methyl-1-(trifluoromethyl)-1H-pyrazole-4-carboxamide] |
| 0.8 | 1.4 | 1.1 | CCn1cc(-c2ncnc3cc(OC)c(NC(=O)c4cnn(C(F)(F)F)c4)nc23)c(-c2ccccc2)n1 [Example 314, N-(4-(1-ethyl-3-phenyl-1H-pyrazol-4-yl)-7-methoxypyrido[3,2-d]pyrimidin-6-yl)-1-(trifluoromethyl)-1H-pyrazole-4-carboxamide] |
| 0.7 | 1.7 | 2.7 | CCn1cc(-c2ncnc3cc(OC)c(NC(=O)[C@]45COC[C@H]4C5)cc23)c(-c2ccccc2F)n1 (mixture of isomers) [Example 263, (1S,5S)—N-(4-(1-ethyl-3-(2-fluorophenyl)-1H-pyrazol-4-yl)-7-methoxyquinazolin-6-yl)-3-oxabicyclo[3.1.0]hexane-1-carboxamide and (1R,5R)—N-(4-(1-ethyl-3-(2-fluorophenyl)-1H-pyrazol-4-yl)-7-methoxyquinazolin-6-yl)-3-oxabicyclo[3.1.0]hexane-1-carboxamide] |
| 1.8 | 4.2 | 4.2 | COc1cc2ncnc(-c3cn(C)nc3-c3ccccc3)c2cc1O[C@@H]1CCN(C)C[C@H]1F [Example 1, 6-(((3R,4R)-3-fluoro-1-methylpiperidin-4-yl)oxy)-7-methoxy-4-(1-methyl-3-phenyl-1H-pyrazol-4-yl)quinazoline] |
| 3.4 | 4.8 | 4.5 | CCOc1cc2ncnc(-c3cn(C)nc3-c3ccccc3)c2cc1OC1CCNCC1 [Example 8, 7-ethoxy-4-(1-methyl-3-phenyl-1H-pyrazol-4-yl)-6-(piperidin-4-yloxy)quinazoline] |
| 0.8 | 2.2 | 2.3 | COc1cc2ncnc(-c3cn(C)nc3-c3ccccc3F)c2nc1NC(=O)[C@@]12C[C@@H]1CN(C)C2 [Example 373, (1S,5S)—N-(4-(3-(2-fluorophenyl)-1-methyl-1H-pyrazol-4-yl)-7-methoxypyrido[3,2-d]pyrimidin-6-yl)-3-methyl-3-azabicyclo[3.1.0]hexane-1-carboxamide] |
| 1.1 | 2.1 | 4.9 | COc1cc2ncnc(-c3cn(C)nc3-c3ccccc3)c2cc1NC(=O)c1cnn(CC(F)(F)F)c1 [Example 203, N-(7-methoxy-4-(1-methyl-3-phenyl-1H-pyrazol-4-yl)quinazolin-6-yl)-1-(2,2,2-trifluoroethyl)-1H-pyrazole-4-carboxamide] |
| 1.4 | 2.6 | 2.6 | COc1cc2ncnc(-c3cn(CC(F)F)nc3-c3ccccc3)c2cc1C1(O)CCOCC1 [Example 127, 4-(4-(1-(2,2-difluoroethyl)-3-phenyl-1H-pyrazol-4-yl)-7-methoxyquinazolin-6-yl)tetrahydro-2H-pyran-4-ol] |
| 2.1 | 7 | 6.6 | COc1cc2ncnc(-c3cn(C)nc3-c3ccccc3)c2cc1NC(=O)[C@H]1CCCN1C (single isomer, unassigned) [Example 242, (R)—N-(7-methoxy-4-(1-methyl-3-phenyl-1H-pyrazol-4-yl)quinazolin-6-yl)-1-methylpyrrolidine-2-carboxamide or (S)—N-(7-methoxy-4-(1-methyl-3-phenyl-1H-pyrazol-4-yl)quinazolin-6-yl)-1-methylpyrrolidine-2-carboxamide] |
| 0.7 | 1.2 | 3.1 | CCOc1cc2ncnc(-c3cn(C4CC4)nc3-c3ccccc3)c2cc1CO [Example 135, (4-(1-cyclopropyl-3-phenyl-1H-pyrazol-4-yl)-7-ethoxyquinazolin-6-yl)methanol] |
| 76.3 | 121 | 1210 | COc1cc2ncnc(-c3cnn(C(F)(F)F)c3-c3ccccc3)c2cc1NC(=O)C12CC(C1)C2 [Example 485, N-(7-methoxy-4-(5-phenyl-1-(trifluoromethyl)-1H-pyrazol-4-yl)quinazolin-6-yl)bicyclo[1.1.1]pentane-1-carboxamide] |
| 0.8 | 1.2 | 0.3 | CN1CCC(n2cc(-c3ccc4c(-c5cn(C)nc5-c5ccccc5)ncnc4c3)cn2)CC1 [Example 438, 4-(1-methyl-3-phenyl-1H-pyrazol-4-yl)-7-(1-(1-methylpiperidin-4-yl)-1H-pyrazol-4-yl)quinazoline] |
| 1.9 | 3.4 | 2.1 | CCOc1cc2ncnc(-c3cn(C)nc3-c3ccccc3)c2nc1NC(=O)C12CC(C1)C2 [Example 311, N-(7-ethoxy-4-(1-methyl-3-phenyl-1H-pyrazol-4-yl)pyrido[3,2-d]pyrimidin-6-yl)bicyclo[1.1.1]pentane-1-carboxamide] |
| 1 | 2 | 3.5 | COc1cc2ncnc(-c3cn(C)nc3-c3ccccc3)c2cc1NC(=O)C1(C(F)(F)F)CC1 [Example 349, N-(7-methoxy-4-(1-methyl-3-phenyl-1H-pyrazol-4-yl)quinazolin-6-yl)-1-(trifluoromethyl)cyclopropane-1-carboxamide] |
| 0.8 | 1 | 1.1 | COc1cc2ncnc(-c3cn(C)nc3-c3ccccc3)c2nc1OC(C)c1cscn1 (stereo not drawn) [Example 31, 4-(1-((7-methoxy-4-(1-methyl-3-phenyl-1H-pyrazol-4-yl)pyrido[3,2-d]pyrimidin-6-yl)oxy)ethyl)thiazole] |
| 2.7 | 7.6 | 13.8 | COc1cc2ncnc(-c3cn(C)nc3-c3ccccc3)c2cc1C(C)(C)O [Example 121, 2-(7-methoxy-4-(1-methyl-3-phenyl-1H-pyrazol-4-yl)quinazolin-6-yl) propan-2-ol] |
| 1.5 | 3 | 7.8 | COc1cc2ncnc(-c3cn(CCO)nc3-c3ccccc3)c2nc1NC(=O)c1cnn(C(F)(F)F)c1 [Example 415, N-(4-(1-(2-hydroxyethyl)-3-phenyl-1H-pyrazol-4-yl)-7-methoxypyrido[3,2-d]pyrimidin-6-yl)-1-(trifluoromethyl)-1H-pyrazole-4-carboxamide] |
| 1.3 | 1.9 | 2.8 | COc1cc2ncnc(-c3cn(CC(F)F)nc3-c3ccccc3)c2cc1C(C)(C)O [Example 122, 2-(4-(1-(2,2-difluoroethyl)-3-phenyl-1H-pyrazol-4-yl)-7-methoxyquinazolin-6-yl) propan-2-ol] |
| 0.9 | 1.7 | 1.4 | CCn1cc(-c2ncnc3cc(OC)c(NC(=O)c4cnn(C(F)(F)F)c4)cc23)c(-c2ccccc2)n1 [Example 307, N-(4-(1-ethyl-3-phenyl-1H-pyrazol-4-yl)-7-methoxyquinazolin-6-yl)-1-(trifluoromethyl)-1H-pyrazole-4-carboxamide] |
| 0.7 | 1.5 | 0.7 | COc1cc2ncnc(-c3cn(CC4CC4)nc3-c3ccccc3)c2nc1NC(=O)[C@@]12C[C@@H]1CN(C)C2 (single isomer, unassigned) [Example 408, (1R,5R)—N-(4-(1-(cyclopropylmethyl)-3-phenyl-1H-pyrazol-4-yl)-7-methoxypyrido[3,2-d]pyrimidin-6-yl)-3-methyl-3-azabicyclo[3.1.0]hexane-1-carboxamide or (1S,5S)—N-(4-(1-(cyclopropylmethyl)-3-phenyl-1H-pyrazol-4-yl)-7-methoxypyrido[3,2-d]pyrimidin-6-yl)-3-methyl-3-azabicyclo[3.1.0]hexane-1-carboxamide] |
| 0.8 | 1.4 | 4.2 | COc1cc2ncnc(-c3sc(C)nc3-c3ccccc3)c2nc1NC(=O)C1CC1 [Example 437, N-(7-methoxy-4-(2-methyl-4-phenylthiazol-5-yl)pyrido[3,2-d]pyrimidin-6-yl)cyclopropanecarboxamide] |
| 1.7 | 3.6 | 4.9 | COc1cc2ncnc(-c3cn(C)nc3-c3ccccc3)c2cc1NC(=O)c1ccc(C(F)F)nc1 [Example 352, 6-(difluoromethyl)-N-(7-methoxy-4-(1-methyl-3-phenyl-1H-pyrazol-4-yl)quinazolin-6-yl)nicotinamide] |
